According to patent publication EP2295964A1, “Irrigation solution” (priority 2009, dated 2011):

Settings: human, in vivo, iv
Procedure: The kinetics of the glucose infusion was studied to characterize how effectively the volunteers handled the glucose molecules as well as the accompanying water volume. […] 2003, 90, 600-607, in which the plasma concentration of glucose above baseline (C) at any time (t) resulting from the infusion rate ki is calculated by using the following differential equation: (dC)/(dt) = (ki -(CL×C(t)))/(Vd) [formula] in which Vd is the volume of distribution and CL is the glucose clearance.
The data were normally distributed and thus results were expressed as the mean and standard deviation (SD). Correlations were evaluated by linear regression analysis. P < 0.05 was considered statistically significant.

Vd, volume of distribution of exogenous glucose: 15.52 L
Substance: D-glucose
